For experiment [1], the system named is capillary-to-arteriole electrical signaling. Kind of experiment: Ex vivo CaPA preparation from transgenic mice: arteriolar tone and dilation to capillary 10 mM K+.
For experiment [2], the target named is T1, Kir2.1 channel (Mus musculus, UniProt P35561).
T1 sequence (P35561 1-428): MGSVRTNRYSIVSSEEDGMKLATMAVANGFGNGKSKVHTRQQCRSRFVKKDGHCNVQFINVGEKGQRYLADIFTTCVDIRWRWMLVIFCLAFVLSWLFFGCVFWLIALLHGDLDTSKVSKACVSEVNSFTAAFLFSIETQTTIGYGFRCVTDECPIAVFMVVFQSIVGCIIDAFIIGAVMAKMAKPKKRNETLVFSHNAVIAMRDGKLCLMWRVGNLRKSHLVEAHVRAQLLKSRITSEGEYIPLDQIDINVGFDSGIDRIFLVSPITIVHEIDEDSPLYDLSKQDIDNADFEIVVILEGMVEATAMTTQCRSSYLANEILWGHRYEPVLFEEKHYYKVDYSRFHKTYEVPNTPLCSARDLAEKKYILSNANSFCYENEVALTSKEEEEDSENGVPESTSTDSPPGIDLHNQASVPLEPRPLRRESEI
Kind of experiment: Patch-clamp recording of Kir2.1 currents in freshly isolated brain capillary endothelial cells (cECs). The following applies: for Effect of simultaneous PKC and IP3R/Ca2+ block on PGE2-mediated suppression of Kir2.1 currents: 1 μM Gö6976 + 30 μM CPA bath-applied + 5.4 mM BAPTA dialyzed together; for Effect of simultaneous PKC and IP3R/Ca2+ block on PGE2-mediated suppression of Kir2.1 currents / Effect on PGE2-induced reduction of Kir2.1 current: PGE2 2 μM, 0 mM Mg-ATP; for Effect on PGE2-induced reduction of Kir2.1 current: diC8-PIP2 10 μM dialyzed, U73122 10 μM bath, Gö6976 1 μM bath, BAPTA 5.4 mM dialyzed; for Decline of Kir2.1 currents over 15 min: in pipette: 1 mM Mg-ATP, 1 mM Mg-ATP-γ-S, or 10 μM diC8-PIP2 with 0 mM Mg-ATP. (Patch clamp records ionic current or voltage across a cell membrane.)

[3] abbreviates: cECs dialyzed with 1 mM Mg-ATP, PKC, PKG, PKA inhibitors.
[4] abbreviates: dialyzed cECs, 1 mM Mg-ATP, 1 μM Gö6976, 10 μM Rp-8-Br-PET-cGMPS, 1 μM H-89.
Setting [5] is: conventional whole-cell, dialyzed cECs.

Structures can show the parent of a compound that is named as a salt. Where two headings read alike, the source gives them in different places.

For `Nc1ccncc1` [4-aminopyridine], in experiment [1] (TgNotch3^R169C CaPA, 1 mM 4-AP, 30 ng/mL HB-EGF bath, or exogenous PIP2 bath), the “Arteriolar dilation in response to capillary stimulation with 10 mM K+” value was “did not restore arteriolar dilation”. Further, the “Myogenic tone of arteriolar segment” value in experiment [1] (TgNotch3^R169C, 1 mM 4-AP or 30 ng/mL HB-EGF) is listed as “restores myogenic tone”. On to SLIGRL-NH2, for which, in experiment [2] (perforated patch, 15 min, SLIGRL-NH2 5 μM), the “Effect on capillary Kir2.1 currents” value was “had no effect”. For `Cl.Cl.O=S(=O)(NCCNC/C=C/c1ccc(Br)cc1)c1cccc2cnccc12` [H-89 dihydrochloride], in experiment [2] (setting [3]), the “Effect on peak Kir2.1 current densities at -140 mV” value (“Effect … -140 mV” for short) is reported as “absence of an effect”. Also, the “Effect on Mg-ATP-mediated maintenance of Kir2.1 currents over 15 min” value (“Effect … over 15 min” for short) in experiment [2] (setting [4]) was “unaltered”. Turning to `Nc1nc2c(ncn2[C@@H]2O[C@H](COP(=O)(O)OP(=O)(O)OP(=O)(O)O)[C@@H](O)[C@H]2O)c(=O)[nH]1` [Na-GTP], in experiment [2] (100 μM Na-GTP in pipette alone or with 1 mM Mg-ATP), the “Effect on peak Kir2.1 current amplitude or kinetics of current decline” value was “in neither setting did Na-GTP have an effect”. With `O=c1c2nc(Br)n([C@@H]3O[C@@H]4CO[P@@](O)(=S)O[C@H]4[C@H]3O)c2nc2[nH]c(-c3ccccc3)cn12` [Rp-8-Br-PET-cGMPS], in experiment [2], the “Effect … over 15 min” value is “unaltered” and the “Effect … -140 mV” value is listed as “absence of an effect”. With `O=C(O)CN(CC(=O)O)c1ccccc1OCCOc1ccccc1N(CC(=O)O)CC(=O)O` [BAPTA, 1,2-bis(2-aminophenoxy)ethane-N,N,N′,N′-tetraacetic acid], the “Effect of simultaneous PKC and IP3R/Ca2+ block on PGE2-mediated suppression of Kir2.1 currents” value in experiment [2] is “lack of an effect”. Also, in experiment [2] (dialyzed cECs), the “Effect on PGE2-induced reduction of Kir2.1 current” value (“Effect on PGE2-induced reduction” for short) was “no effect”. As for `Cn1c2ccccc2c2c3c(c4c5ccccc5n(CCC#N)c4c21)CNC3=O` [Gö6976, 12-(2-cyanoethyl)-6,7,12,13-tetrahydro-13-methyl-5-oxo-5H-indolo(2,3-a)pyrrolo(3,4-c)-carbazole], in experiment [2], the “Effect of simultaneous PKC and IP3R/Ca2+ block on PGE2-mediated suppression of Kir2.1 currents” value was “lack of an effect”. Also, in experiment [2] (setting [3]), the “Effect … -140 mV” value is reported as “absence of an effect”. Also, in experiment [2] (dialyzed cECs), the “Effect on PGE2-induced reduction” value is “no effect”. In addition, the “Effect … over 15 min” value in experiment [2] (setting [4]) is “unaltered”. `CCCCCCCC(=O)OCC(COP(=O)(O)OC1C(O)C(O)C(OP(=O)(O)O)C(OP(=O)(O)O)C1O)OC(=O)CCCCCCC` (stereo not drawn) [diC8-PIP2, 1,2-Dioctanoyl phosphatidylinositol 4,5-bisphosphate sodium salt]: in experiment [2] (conventional whole-cell, 0 mM Mg-ATP + 10 μM diC8-PIP2 in pipette), the “Initial Kir2.1 currents (at t0)” value is recorded as “did not elevate initial Kir2.1 currents”. Moreover, the “Decline of Kir2.1 currents over 15 min” value in experiment [2] (setting [5]) is “largely abrogated the decline in Kir2.1 currents”. Also, in experiment [2] (dialyzed cECs), the “Effect on PGE2-induced reduction” value is on record as “completely abrogated”.

Turning to `CC(C)Oc1ccc2c(=O)c3cc(C(=O)O)ccc3oc2c1` [AH6809], in experiment [2], the “Effect on inhibitory effect of PGE2 on Kir2.1 currents” value is “prevented”. As to `NC(=O)c1nc(Nc2ccccc2)sc1NC(=O)C1CCCCC1` [UNC3230, 5-[(Cyclohexylcarbonyl)amino]-2-(phenylamino)-thiazolecarboxamide], the “Kir2.1 currents 15 min after PIP2 synthesis inhibitor” value in experiment [2] (perforated-patch (intact cytoplasm), PIK93 300 nM, phenylarsine oxide 10 μM, UNC3230 100 nM, bath-applied) is reported as “yielded similar results”. Consider `Nc1ncnc2c1ncn2[C@@H]1O[C@H](COP(=O)(O)OP(=O)(O)OP(O)(O)=S)[C@@H](O)[C@H]1O` [Mg-ATP-γ-S], for which, in experiment [2] (setting [5]), the “Decline of Kir2.1 currents over 15 min” value was “failed to avert current decay”.

B1: TIMP3: recombinant soluble TIMP3, matrix metalloproteinase inhibitor (protein, UniProt P35625 24-211, looked up)
Metalloproteinase inhibitor 3: CTCSPSHPQDAFCNSDIVIRAKVVGKKLVKEGPFGTLVYTIKQMKMYRGFTKMPHVQYIHTEASESLCGLKLEVNKYQYLLTGRVYDGKMYTGLCNFVERWDQLTLSQRKGLNYRYHLGCNCKIKSCYYLPCFVTSKNECLWTDMLSNFGYPGYQSKHYACIRQKGGYCSWYRGWAPPDKSIINATDP
On to B1, for which, in experiment [1] (TgNotch3^WT CaPA, bath 8 nM soluble recombinant TIMP3), the “Arteriolar vasodilation induced by capillary stimulation with 10 mM K+” value was “gradually attenuated and, ultimately, abolished”.

Values taken from patent US20220168325A1, “METHODS TO PROMOTE CEREBRAL BLOOD FLOW IN THE BRAIN” (THE UNIVERSITY OF VERMONT, priority 2019, published 2022).
